Experimental data taken from ChEMBL document CHEMBL2440076, “New triarylpyrazoles as broad-spectrum anticancer agents: design, synthesis, and biological evaluation” (Eur J Med Chem, 2013).

Key:
[1] = test system: OVCAR-5; assay: Growth inhibition of human OVCAR5 cells after 48 hrs by sulforhodamine B assay; format: functional; settings: OVCAR-5, 48 h
[2] = test system: DU-145; assay: Growth inhibition of human DU145 cells assessed as cell growth at 10 uM after 48 hrs by sulforhodamine B assay; format: functional; settings: DU-145, 48 h, read-out: Activity
[3] = test system: KM12; assay: Growth inhibition of human KM12 cells after 48 hrs by sulforhodamine B assay; format: functional, cell-based; settings: KM12, 48 h; for CC50: read-out: LC50 (the source's name)
[4] = test system: NCI-H460; assay: Growth inhibition of human NCI-H460 cells after 48 hrs by sulforhodamine B assay; format: functional; settings: NCI-H460, 48 h
[5] = Growth inhibition of human Hs 578T cells assessed as cell growth at 10 uM after 48 hrs by sulforhodamine B assay; format: functional; settings: read-out: Activity
[6] = test system: UO-31; assay: Growth inhibition of human UO31 cells after 48 hrs by sulforhodamine B assay; format: functional; settings: UO-31, 48 h; for CC50: read-out: LC50 (the source's name)
[7] = test system: SN12C; assay: Growth inhibition of human SN12C cells assessed as cell growth at 10 uM after 48 hrs by sulforhodamine B assay; format: functional; settings: read-out: Activity
[8] = test system: UACC-62; assay: Growth inhibition of human UACC62 cells assessed as cell growth at 10 uM after 48 hrs by sulforhodamine B assay; format: functional; settings: UACC-62, 48 h, read-out: Activity
[9] = test system: DU-145; assay: Growth inhibition of human DU145 cells after 48 hrs by sulforhodamine B assay; format: functional; settings: DU-145, 48 h
[10] = test system: CAKI-1; assay: Growth inhibition of human CAKI-1 cells assessed as cell growth at 10 uM after 48 hrs by sulforhodamine B assay; format: functional; settings: CAKI-1, 48 h, read-out: Activity
[11] = test system: RPMI-8226; assay: Growth inhibition of human RPMI8226 cells after 48 hrs by sulforhodamine B assay; format: functional, cell-based; settings: RPMI-8226, 48 h; for CC50: read-out: LC50 (the source's name)
[12] = test system: IGROV-1; assay: Growth inhibition of human IGROV1 cells after 48 hrs by sulforhodamine B assay; format: functional; settings: IGROV-1, 48 h
[13] = test system: NCI-H322M; assay: Growth inhibition of human NCI-H322M cells after 48 hrs by sulforhodamine B assay; format: functional; settings: for CC50: read-out: LC50 (the source's name)
[14] = test system: A549; assay: Growth inhibition of human A549/ATCC cells after 48 hrs by sulforhodamine B assay; format: functional; settings: A549, 48 h
[15] = test system: MCF7; assay: Growth inhibition of human MCF7 cells assessed as cell growth at 10 uM after 48 hrs by sulforhodamine B assay; format: functional; settings: MCF7, 48 h, read-out: Activity
[16] = test system: K562; assay: Growth inhibition of human K562 cells after 48 hrs by sulforhodamine B assay; format: functional; settings: K562, 48 h; for CC50: read-out: LC50 (the source's name)
[17] = test system: ACHN; assay: Growth inhibition of human ACHN cells assessed as cell growth at 10 uM after 48 hrs by sulforhodamine B assay; format: functional; settings: read-out: Activity
[18] = test system: RXF 393; assay: Growth inhibition of human RXF393 cells assessed as cell growth at 10 uM after 48 hrs by sulforhodamine B assay; format: functional; settings: RXF 393, 48 h, read-out: Activity
[19] = test system: OVCAR-4; assay: Growth inhibition of human OVCAR4 cells assessed as cell growth at 10 uM after 48 hrs by sulforhodamine B assay; format: functional; settings: OVCAR-4, 48 h, read-out: Activity
[20] = test system: BT-549; assay: Growth inhibition of human BT549 cells after 48 hrs by sulforhodamine B assay; format: functional; settings: BT-549, 48 h
[21] = test system: BT-549; assay: Growth inhibition of human BT549 cells assessed as cell growth at 10 uM after 48 hrs by sulforhodamine B assay; format: functional; settings: BT-549, 48 h, read-out: Activity
[22] = test system: IGROV-1; assay: Growth inhibition of human IGROV1 cells assessed as cell growth at 10 uM after 48 hrs by sulforhodamine B assay; format: functional; settings: IGROV-1, 48 h, read-out: Activity
[23] = test system: OVCAR-8; assay: Growth inhibition of human OVCAR8 cells after 48 hrs by sulforhodamine B assay; format: functional; settings: OVCAR-8, 48 h; for CC50: read-out: LC50 (the source's name)
[24] = test system: UACC-257; assay: Growth inhibition of human UACC257 cells assessed as cell growth at 10 uM after 48 hrs by sulforhodamine B assay; format: functional; settings: UACC-257, 48 h, read-out: Activity
[25] = test system: NCI-H522; assay: Growth inhibition of human NCI-H522 cells after 48 hrs by sulforhodamine B assay; format: functional; settings: NCI-H522, 48 h
[26] = test system: SW-620; assay: Growth inhibition of human SW620 cells after 48 hrs by sulforhodamine B assay; format: functional; settings: SW-620, 48 h; for CC50: read-out: LC50 (the source's name)
[27] = test system: CCRF-CEM; assay: Growth inhibition of human CCRF-CEM cells assessed as cell growth at 10 uM after 48 hrs by sulforhodamine B assay; format: functional; settings: read-out: Activity
[28] = test system: NCI-H322M; assay: Growth inhibition of human NCI-H322M cells assessed as cell growth at 10 uM after 48 hrs by sulforhodamine B assay; format: functional; settings: read-out: Activity
[29] = test system: K562; assay: Growth inhibition of human K562 cells assessed as cell growth at 10 uM after 48 hrs by sulforhodamine B assay; format: functional; settings: K562, 48 h, read-out: Activity
[30] = test system: RXF 393; assay: Growth inhibition of human RXF393 cells after 48 hrs by sulforhodamine B assay; format: functional; settings: RXF 393, 48 h
[31] = test system: CCRF-CEM; assay: Growth inhibition of human CCRF-CEM cells after 48 hrs by sulforhodamine B assay; format: functional
[32] = test system: OVCAR-5; assay: Growth inhibition of human OVCAR5 cells assessed as cell growth at 10 uM after 48 hrs by sulforhodamine B assay; format: functional; settings: OVCAR-5, 48 h, read-out: Activity
[33] = test system: U-251; assay: Growth inhibition of human U251 cells assessed as cell growth at 10 uM after 48 hrs by sulforhodamine B assay; format: functional; settings: U-251, 48 h, read-out: Activity
[34] = test system: MCF7; assay: Growth inhibition of human MCF7 cells after 48 hrs by sulforhodamine B assay; format: functional; settings: MCF7, 48 h
[35] = test system: A498; assay: Growth inhibition of human A498 cells after 48 hrs by sulforhodamine B assay; format: functional, cell-based; settings: A498, 48 h; for CC50: read-out: LC50 (the source's name)

Compound: COc1cc(-c2nn(-c3cccc(NC(=O)Nc4ccc(Cl)c(Cl)c4)c3)cc2-c2ccncc2)ccc1Cl
- GI50 [1]: 2.13 µM
- LC50 (concentration killing 50% of cells) [1]: > 50 µM
- TGI [1]: > 50 µM
- growth at 10 µM [2]: 20%
- GI50 [3]: 0.811 µM
- IC50 [3]: 0.81 µM
- TGI [3]: 2.77 µM
- CC50 [3]: 49.5 µM
- GI50 [4]: 1.11 µM
- LC50 [4]: > 50 µM
- TGI [4]: > 50 µM
- growth at 10 µM [5]: -6.95%
- GI50 [6]: 0.845 µM
- TGI [6]: 4.98 µM
- CC50 [6]: > 50 µM
- growth at 10 µM [7]: 10.7%
- growth at 10 µM [8]: -65.1%
- GI50 [9]: 1.52 µM
- LC50 [9]: > 50 µM
- TGI [9]: 34.2 µM
- growth at 10 µM [10]: 16.8%
- GI50 [11]: 0.388 µM
- IC50 [11]: 0.39 µM
- TGI [11]: 3.26 µM
- CC50 [11]: > 50 µM
- GI50 [12]: 1.18 µM
- LC50 (concentration killing 50% of cells) [12]: > 50 µM
- TGI [12]: 3.48 µM
- GI50 [13]: 1.69 µM
- TGI [13]: > 50 µM
- CC50 [13]: > 50 µM
- GI50 [14]: 0.745 µM
- LC50 (concentration killing 50% of starting cells) [14]: > 50 µM
- TGI [14]: > 50 µM
- growth at 10 µM [15]: 1.73%
- GI50 [16]: 0.89 µM
- TGI [16]: > 50 µM
- CC50 [16]: > 50 µM
- growth at 10 µM [17]: 11.5%
- growth at 10 µM [18]: -22.8%
- growth at 10 µM [19]: 19.8%
- GI50 [20]: 1.68 µM
- LC50 (50% lethal concentration) [20]: > 50 µM
- TGI [20]: 27.6 µM
- growth at 10 µM [21]: 6.23%
- growth at 10 µM [22]: 23.9%
- GI50 [23]: 0.931 µM
- TGI [23]: 3.61 µM
- CC50 [23]: > 50 µM
- growth at 10 µM [24]: -36.6%
- GI50 [25]: 0.811 µM
- LC50 (concentration killing 50% of cells) [25]: > 50 µM
- TGI [25]: 3.1 µM
- GI50 [26]: 1.59 µM
- TGI [26]: > 50 µM
- CC50 [26]: > 50 µM
- growth at 10 µM [27]: -7.9%
- growth at 10 µM [28]: 38.8%
- growth at 10 µM [29]: 3.63%
- GI50 [30]: 0.859 µM
- LC50 (concentration killing 50% of cells) [30]: > 50 µM
- TGI [30]: 2.44 µM
- GI50 [31]: 1.04 µM
- LC50 [31]: > 50 µM
- growth at 10 µM [32]: 38%
- growth at 10 µM [33]: -6.02%
- GI50 [34]: 0.945 µM
- LC50 [34]: > 50 µM
- TGI [34]: > 50 µM
- GI50 [35]: 1.14 µM
- IC50 [35]: 1.14 µM
- TGI [35]: 4.59 µM
- CC50 [35]: > 50 µM

Compound: COc1cc(-c2nn(-c3cccc(NC(=O)c4ccc(N5CCOCC5)c(C(F)(F)F)c4)c3)cc2-c2ccncc2)ccc1Cl
- GI50 [1]: 1.45 µM
- LC50 (concentration killing 50% of cells) [1]: > 100 µM
- TGI [1]: > 100 µM
- growth at 10 µM [2]: 10.9%
- GI50 [3]: 0.248 µM
- IC50 [3]: 0.25 µM
- TGI [3]: 6.6 µM
- CC50 [3]: > 100 µM
- GI50 [4]: 0.336 µM
- LC50 [4]: > 100 µM
- TGI [4]: > 100 µM
- growth at 10 µM [5]: -13.6%
- GI50 [6]: 0.289 µM
- TGI [6]: 7.53 µM
- CC50 [6]: > 100 µM
- growth at 10 µM [7]: 31%
- growth at 10 µM [8]: 8.35%
- GI50 [9]: 0.388 µM
- LC50 [9]: > 100 µM
- TGI [9]: > 100 µM
- growth at 10 µM [10]: 39.9%
- GI50 [11]: 0.339 µM
- IC50 [11]: 0.34 µM
- TGI [11]: > 100 µM
- CC50 [11]: > 100 µM
- GI50 [12]: 0.437 µM
- LC50 (concentration killing 50% of cells) [12]: > 100 µM
- TGI [12]: 6.79 µM
- GI50 [13]: 0.603 µM
- TGI [13]: 94.4 µM
- CC50 [13]: > 100 µM
- GI50 [14]: 0.315 µM
- LC50 (concentration killing 50% of starting cells) [14]: > 100 µM
- TGI [14]: > 100 µM
- growth at 10 µM [15]: 8.85%
- GI50 [16]: 0.0499 µM
- TGI [16]: > 100 µM
- CC50 [16]: > 100 µM
- growth at 10 µM [17]: 21.3%
- growth at 10 µM [18]: -45.2%
- growth at 10 µM [19]: 52.6%
- GI50 [20]: 1.41 µM
- LC50 (50% lethal concentration) [20]: > 100 µM
- TGI [20]: > 100 µM
- growth at 10 µM [21]: 14.3%
- growth at 10 µM [22]: 41.8%
- GI50 [23]: 0.468 µM
- TGI [23]: > 100 µM
- CC50 [23]: > 100 µM
- growth at 10 µM [24]: 24.3%
- GI50 [25]: 0.107 µM
- LC50 (concentration killing 50% of cells) [25]: > 100 µM
- TGI [25]: 3.53 µM
- GI50 [26]: 0.241 µM
- TGI [26]: > 100 µM
- CC50 [26]: > 100 µM
- growth at 10 µM [27]: 0.91%
- growth at 10 µM [28]: 54.2%
- growth at 10 µM [29]: 1.22%
- GI50 [30]: 0.199 µM
- LC50 (concentration killing 50% of cells) [30]: > 100 µM
- TGI [30]: 0.674 µM
- GI50 [31]: 0.236 µM
- LC50 [31]: > 100 µM
- TGI [31]: > 100 µM
- growth at 10 µM [32]: 34.7%
- growth at 10 µM [33]: 2.49%
- GI50 [34]: 0.285 µM
- LC50 [34]: > 100 µM
- TGI [34]: > 1 µM
- GI50 [35]: 0.227 µM
- IC50 [35]: 0.23 µM
- TGI [35]: 1.08 µM
- CC50 [35]: > 100 µM
